Values after ≈ are worked out from the molar mass of the structure shown. Active and inactive are the calls of the source. The rule behind the calls is not given here.
How the values were obtained:
[1] = Half life in dog at 9 umol/kg, po or 3 umol/kg, iv; format: ADME, organism-based, Canis lupus familiaris; conditions: in vivo
[2] = target: T1, C-C chemokine receptor type 4 (Mus musculus, UniProt P51680); experiment: Antagonist activity at mouse CCR4; format: functional
T1 sequence (P51680 whole entry): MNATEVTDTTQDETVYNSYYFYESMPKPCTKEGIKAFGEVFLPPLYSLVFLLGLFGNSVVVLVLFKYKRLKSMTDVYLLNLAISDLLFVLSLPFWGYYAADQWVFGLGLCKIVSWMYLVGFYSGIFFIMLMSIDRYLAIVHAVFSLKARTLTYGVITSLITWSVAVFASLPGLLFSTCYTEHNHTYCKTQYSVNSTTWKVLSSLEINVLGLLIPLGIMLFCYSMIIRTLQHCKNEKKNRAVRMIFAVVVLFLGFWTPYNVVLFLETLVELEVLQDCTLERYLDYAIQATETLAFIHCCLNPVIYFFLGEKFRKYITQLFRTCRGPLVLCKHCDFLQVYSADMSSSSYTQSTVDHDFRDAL

[3] = Volume of distribution at steady state in dog at 9 umol/kg, po or 3 umol/kg, iv; format: ADME, organism-based, Canis lupus familiaris; conditions: in vivo, read-out: Vdss
[4] = Clearance in rat at 9 umol/kg, po or 3 umol/kg, iv; format: ADME, organism-based; conditions: in vivo
[5] = target: T2, C-C chemokine receptor type 4 (Homo sapiens, UniProt P51679); experiment: Antagonist activity at human CCR4 expressed in HEK cells coexpressing CD4+ assessed as inhibition of CCL22 induced Ca2+ mobilization; format: functional, cell-based
T2 sequence (P51679 whole entry): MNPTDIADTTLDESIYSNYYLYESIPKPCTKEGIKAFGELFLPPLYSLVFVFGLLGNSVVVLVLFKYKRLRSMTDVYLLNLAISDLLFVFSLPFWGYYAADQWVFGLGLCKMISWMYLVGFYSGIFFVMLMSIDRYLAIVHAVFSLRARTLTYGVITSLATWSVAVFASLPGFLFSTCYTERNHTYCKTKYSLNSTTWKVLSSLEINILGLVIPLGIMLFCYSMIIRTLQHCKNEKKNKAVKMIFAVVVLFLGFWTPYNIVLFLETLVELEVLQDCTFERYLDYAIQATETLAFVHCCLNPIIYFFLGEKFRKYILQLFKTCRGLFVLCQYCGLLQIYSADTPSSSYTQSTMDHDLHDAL

[6] = target: T3, C-X-C chemokine receptor type 1 (Homo sapiens) (UniProt P25024); experiment: Antagonist activity at CXCR1 (unknown origin) at 10 uM; format: functional
T3 sequence (whole entry): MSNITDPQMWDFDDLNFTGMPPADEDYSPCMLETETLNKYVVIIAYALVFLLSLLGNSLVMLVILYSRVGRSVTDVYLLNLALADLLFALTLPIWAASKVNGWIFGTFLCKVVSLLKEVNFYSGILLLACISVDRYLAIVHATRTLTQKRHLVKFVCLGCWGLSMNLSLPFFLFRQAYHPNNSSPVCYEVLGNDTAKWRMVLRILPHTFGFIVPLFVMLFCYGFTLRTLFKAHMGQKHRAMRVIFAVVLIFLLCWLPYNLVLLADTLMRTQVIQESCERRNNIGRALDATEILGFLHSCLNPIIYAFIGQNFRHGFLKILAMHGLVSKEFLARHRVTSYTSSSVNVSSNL

[7] = target: T4, C-C chemokine receptor type 7 (Homo sapiens) (UniProt P32248); experiment: Antagonist activity at CCR7 (unknown origin) at 10 uM; format: functional
T4 sequence (whole entry): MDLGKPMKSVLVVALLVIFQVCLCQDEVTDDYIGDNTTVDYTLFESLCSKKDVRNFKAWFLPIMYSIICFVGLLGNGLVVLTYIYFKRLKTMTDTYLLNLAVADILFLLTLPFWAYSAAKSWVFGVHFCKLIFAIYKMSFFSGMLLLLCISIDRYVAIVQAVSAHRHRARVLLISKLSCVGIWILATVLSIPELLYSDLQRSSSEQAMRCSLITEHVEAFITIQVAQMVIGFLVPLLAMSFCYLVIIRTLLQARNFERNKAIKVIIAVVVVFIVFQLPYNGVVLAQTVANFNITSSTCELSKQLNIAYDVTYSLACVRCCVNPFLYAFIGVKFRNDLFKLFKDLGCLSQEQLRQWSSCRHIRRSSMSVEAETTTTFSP

[8] = target: T5, C-X-C chemokine receptor type 2 (Homo sapiens) (UniProt P25025); experiment: Antagonist activity at CXCR2 (unknown origin) at 10 uM; format: functional
T5 sequence (whole entry): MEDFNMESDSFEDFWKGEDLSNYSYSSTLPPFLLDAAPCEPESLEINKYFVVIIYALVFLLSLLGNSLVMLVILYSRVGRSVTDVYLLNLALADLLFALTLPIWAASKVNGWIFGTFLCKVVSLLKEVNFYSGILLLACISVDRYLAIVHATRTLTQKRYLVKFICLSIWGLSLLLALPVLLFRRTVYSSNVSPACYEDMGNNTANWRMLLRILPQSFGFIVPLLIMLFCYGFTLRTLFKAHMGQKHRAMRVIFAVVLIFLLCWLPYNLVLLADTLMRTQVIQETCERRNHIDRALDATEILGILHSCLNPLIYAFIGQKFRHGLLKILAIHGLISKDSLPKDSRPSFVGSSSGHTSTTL

[9] = Volume of distribution at steady state in rat at 9 umol/kg, po or 3 umol/kg, iv; format: ADME, organism-based; conditions: in vivo, read-out: Vdss
[10] = Half life in rat at 9 umol/kg, po or 3 umol/kg, iv; format: ADME, organism-based; conditions: in vivo
[11] = target: C-C chemokine receptor type 2 (Homo sapiens) (UniProt P41597); experiment: Antagonist activity at CCR2b (unknown origin) at 10 uM
[12] = target: T2, C-C chemokine receptor type 4; experiment: Antagonist activity at recombinant human CCR4 expressed in CHO-K1 cells assessed as inhibition of CCL22 induced Ca2+ mobilization after 2 hrs by FMAT based fluorescence assay; format: functional, cell-based
[13] = Solubility of the compound; format: physicochemical
[14] = target: T6, C-C chemokine receptor type 4 (Canis lupus familiaris, UniProt Q8MJW8); experiment: Antagonist activity at dog CCR4
T6 sequence (Q8MJW8 whole entry): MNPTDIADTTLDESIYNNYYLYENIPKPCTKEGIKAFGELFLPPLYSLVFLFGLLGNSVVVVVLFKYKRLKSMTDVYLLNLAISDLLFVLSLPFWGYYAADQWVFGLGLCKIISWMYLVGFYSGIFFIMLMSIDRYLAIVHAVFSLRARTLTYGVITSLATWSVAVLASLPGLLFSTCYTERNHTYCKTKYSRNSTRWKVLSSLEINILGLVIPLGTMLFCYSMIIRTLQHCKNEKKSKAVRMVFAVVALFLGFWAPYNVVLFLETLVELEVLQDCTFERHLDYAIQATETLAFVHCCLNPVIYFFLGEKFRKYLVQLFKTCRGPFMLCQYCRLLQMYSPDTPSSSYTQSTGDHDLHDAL

[15] = target: C-C chemokine receptor type 8 (Homo sapiens) (UniProt P51685); experiment: Antagonist activity at CCR8 (unknown origin) at 10 uM; format: functional
[16] = target: T7, C-C chemokine receptor type 4 (Homo sapiens) (UniProt P51679); experiment: Agonist activity at CCR4 (unknown origin) up to 10 uM; format: functional
T7 sequence (whole entry): T2 sequence (P51679 whole entry)

[17] = Lipophilicity, log D of the compound; format: physicochemical; conditions: octanol/water
[18] = target: C-C chemokine receptor type 5 (Homo sapiens) (UniProt P51681); experiment: Antagonist activity at CCR5 (unknown origin) at 10 uM; format: functional
[19] = Lipophilicity, log P of the compound; format: physicochemical; conditions: octanol/water
[20] = Antagonist activity at rat CCR4
Hepatocyte = experiment: Stability in human hepatocytes assessed per million cells
[21] = target: T8, C-C chemokine receptor type 1 (Homo sapiens) (UniProt P32246); experiment: Antagonist activity at CCR1 (unknown origin) at 10 uM; format: functional
T8 sequence (whole entry): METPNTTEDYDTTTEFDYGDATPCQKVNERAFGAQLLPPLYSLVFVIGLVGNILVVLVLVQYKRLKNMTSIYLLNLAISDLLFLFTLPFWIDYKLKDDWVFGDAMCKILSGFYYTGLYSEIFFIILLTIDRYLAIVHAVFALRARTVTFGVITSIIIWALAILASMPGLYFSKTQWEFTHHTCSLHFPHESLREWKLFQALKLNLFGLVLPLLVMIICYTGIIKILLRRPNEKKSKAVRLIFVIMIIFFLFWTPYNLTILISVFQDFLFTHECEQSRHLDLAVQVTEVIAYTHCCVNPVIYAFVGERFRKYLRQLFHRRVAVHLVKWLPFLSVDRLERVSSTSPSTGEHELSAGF

[22] = Clearance in dog at 9 umol/kg, po or 3 umol/kg, iv; format: ADME, organism-based, Canis lupus familiaris; conditions: in vivo
[23] = Protein binding in human plasma; format: ADME, cell-free; conditions: read-out: PPB (converted)
[24] = Oral bioavailability in rat at 9 umol/kg; format: ADME, organism-based; conditions: in vivo
[25] = Oral bioavailability in dog at 9 umol/kg; format: ADME, organism-based, Canis lupus familiaris; conditions: in vivo
[26] = Oral bioavailability in rat; format: ADME, organism-based; conditions: in vivo
[27] = Protein binding in mouse plasma; format: ADME, cell-free; conditions: read-out: PPB (converted)
[28] = Oral bioavailability in mouse; format: ADME, organism-based; conditions: in vivo
[29] = Volume of distribution at steady state in rat; format: ADME, organism-based; conditions: in vivo, read-out: Vdss
[30] = Protein binding in rat plasma; format: ADME, cell-free; conditions: read-out: PPB (converted)
[31] = Volume of distribution at steady state in mouse; format: ADME, organism-based; conditions: in vivo, read-out: Vdss

Sequence of C-C chemokine receptor type 2 (Homo sapiens) (P41597 whole entry, looked up): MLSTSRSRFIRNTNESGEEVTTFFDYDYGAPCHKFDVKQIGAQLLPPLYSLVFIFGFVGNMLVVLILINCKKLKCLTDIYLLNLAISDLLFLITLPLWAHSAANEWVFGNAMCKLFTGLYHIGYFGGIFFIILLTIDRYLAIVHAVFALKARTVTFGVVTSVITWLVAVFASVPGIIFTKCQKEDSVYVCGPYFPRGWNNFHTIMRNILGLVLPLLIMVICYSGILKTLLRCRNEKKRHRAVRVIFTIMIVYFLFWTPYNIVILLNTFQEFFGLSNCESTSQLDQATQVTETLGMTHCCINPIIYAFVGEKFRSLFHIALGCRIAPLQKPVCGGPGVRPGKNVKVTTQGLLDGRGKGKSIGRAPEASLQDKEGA
Sequence of C-C chemokine receptor type 5 (Homo sapiens) (P51681 whole entry, looked up): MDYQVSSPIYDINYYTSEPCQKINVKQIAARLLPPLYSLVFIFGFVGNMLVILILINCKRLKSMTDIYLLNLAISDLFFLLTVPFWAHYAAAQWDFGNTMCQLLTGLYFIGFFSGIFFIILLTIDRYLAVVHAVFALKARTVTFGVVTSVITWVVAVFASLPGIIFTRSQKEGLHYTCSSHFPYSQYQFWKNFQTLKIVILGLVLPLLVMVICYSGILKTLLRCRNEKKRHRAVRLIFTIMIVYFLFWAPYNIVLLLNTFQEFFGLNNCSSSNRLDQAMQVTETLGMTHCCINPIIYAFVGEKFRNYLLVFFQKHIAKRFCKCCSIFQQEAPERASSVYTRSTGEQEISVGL
Sequence of C-C chemokine receptor type 8 (Homo sapiens) (P51685 whole entry): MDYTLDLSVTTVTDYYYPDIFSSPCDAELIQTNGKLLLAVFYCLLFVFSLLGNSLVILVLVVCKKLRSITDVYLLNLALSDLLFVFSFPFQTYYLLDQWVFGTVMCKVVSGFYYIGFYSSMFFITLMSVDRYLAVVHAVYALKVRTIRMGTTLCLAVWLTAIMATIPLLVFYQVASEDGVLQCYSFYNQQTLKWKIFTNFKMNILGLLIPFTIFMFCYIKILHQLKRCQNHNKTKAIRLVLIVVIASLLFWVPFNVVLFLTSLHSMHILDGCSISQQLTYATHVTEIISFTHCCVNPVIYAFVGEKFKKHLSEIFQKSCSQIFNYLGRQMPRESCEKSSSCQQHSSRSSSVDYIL

IC50 [2]	Activity [6]	Activity [7]	Activity [8]	Activity [11]	IC50 [12]	solubility [13]	Activity [15]	logD [17]	Activity [18]	pIC50 [20]	Activity [21]	fraction unbound [23]	SMILES	further results
1 nM	inactive	inactive	inactive	inactive	2.51 nM	1300 µg/mL (≈ 3690 µM)	inactive	0.6	inactive	9	inactive	0.006	COc1nc(F)cnc1NS(=O)(=O)c1cccc(Cl)c1Cl	half-life [1]: 0.5 h; Vd [3]: 0.2 L/kg; clearance [4]: 2.3 mL/min/kg; IC50 [5]: 3.98 nM; Vd [9]: 0.2 L/kg; half-life [10]: 2.5 h; IC50 [14]: 3.16 nM; Activity [16]: inactive; logP [19]: 3.1; Stability (Hepatocyte): < 1 uL/ml; clearance [22]: 3.7 mL/min/kg; bioavailability [24]: 100%; bioavailability [25]: 100%
5.01 nM	inactive	inactive	inactive	inactive	63.1 nM	340 µg/mL (≈ 884 µM)	inactive	1.1	inactive	8.3	inactive	< 0.001	COc1nc(Br)cnc1NS(=O)(=O)c1ccc(Cl)s1	bioavailability [26]: 45%; fraction unbound [27]: 0.033; bioavailability [28]: 86%; Vd [29]: 0.1 L/kg; fraction unbound [30]: 0.0015; Vd [31]: 0.1 L/kg

Reference: ChEMBL document CHEMBL4130457, “Discovery of AZD-2098 and AZD-1678, Two Potent and Bioavailable CCR4 Receptor Antagonists” (ACS Med Chem Lett, 2017)
